Assay [1] has as its system electrically paced left atrium. Briefly: Activity on isolated rat atria: tension of electrically paced left atrium. Also on record: species or system Sprague-Dawley male rats. The conditions noted are these: 32°C; for Emax: maximal effect with respect to isoprenaline maximum (isoprenaline 10^-7M = 1), Krebs solution, read-out: Tension Intrinsic activity; for EC50: molar concentration producing 50% of the compound's own maximum response. Here is the method:
(§1) Sprague-Dawley male rats (300-400 g) are killed and the right and left atria dissected out independently and mounted on a combined tissue holder/electrode. The tissues are then immersed in a glass bath containing Krebs solution maintained at 32°C. The rate of the spontaneously beating right atrium (via an isometric transducer and a ratemeter) and the tension of the electrically paced left atrium (via an isometric transducer)are recorded on a M19 chart recorder.
(§2) After an initial stabilization period, the tissues are exposed to a maximal concentration of isoprenaline (10^-7M). The tissues are then washed several times until rate and tension return to baseline level. A dose-response curve to the test compound is then carried out.
(§3) Responses to each concentration of test compound are expressed as a percentage of the maximal responses to isoprenaline. Results are given in the form of (a) intrinsic activity (maximal effect of test compound with respect to isoprenaline maximum, i.e. isoprenaline intrinsic activity = 1) and (b) EC50 (the molar concentration at which the test compound produces 50% of its own maximum response).

Assay [2] relates to spontaneously beating right atrium. Kind of assay: Activity on isolated rat atria: rate of spontaneously beating right atrium. Also on record: species or system Sprague-Dawley male rats. The following applies: 32°C; for Emax: maximal effect with respect to isoprenaline maximum (isoprenaline 10^-7M = 1), Krebs solution, read-out: Rate Intrinsic activity; for EC50: molar concentration producing 50% of the compound's own maximum response. Here is the method:
as §1, §2, §3

Assay [3] concerns left ventricular pressure (LVP). Kind of assay: Assessment of inotropic activity in conscious cats. The class given is in vivo. The conditions noted are these: 0.2 mg/kg p.o., gelatin capsule, recording 6 hours post dosing. Here is the method:
Male 3-4.5 kg cats, bred in-house, are implanted with a polythene cannula in the left ventricle which is exte- riorised at the back of the neck by means of a small teflon valve. Recordings are made via a pressure transducer attached by means of a length of polyethylene tubing to the cat neck valve.
During an initial 1 hour stabilisation period, steady baseline recordings are obtained. The test compound, contained in a gelatin capsule, is then administered orally. Recording is normally carried out for 6 hours post dosing.
The maximal percentage change in dp/dt over initial baseline level is used as the index of inotropic activity. Chronotropic activity is taken as the maximal percentage change in HR over initial baseline level.

The values that follow come from patent publication EP0171760A2, “Substituted phenoxypropylaminoethoxyphenoxyacetamides” (BEECHAM GROUP PLC, priority 1984, dated 1986).

For `CNC(=O)COc1ccc(OCCNCC(O)COc2ccc(O)cc2)cc1` (stereo not shown) [Example 2, N-methyl 4-[2-[3-(4-hydroxyphenoxy)-2-hydroxypropylamino]ethoxy]-phenoxyacetamide], the Emax is 61% in assay [1] and 77% in assay [2]. Also, the EC50 in assay [1] amounted to 150 nM; in assay [2] it was 68 nM.

Regarding `CNC(=O)COc1ccc(OCC(C)NCC(O)COc2ccc(O)cc2)cc1` (stereo not shown) [Example 1, N-methyl 4-[2-[3-(4-hydroxyphenoxy)-2-hydroxypropylamino]-2-methylethoxy]phenoxyacetamide], in assay [1], the Emax came to 88% and it took 25 nM to reach a half-maximal effect (EC50). Besides, in assay [2], the Emax was 94% and a half-maximal effect (EC50) was put at 10 nM. Moreover, the “Peak HR” value in assay [3] (maximal percentage change in HR over initial baseline (chronotropic activity)) turned out to be 0%. Besides, the Peak dp/dt in assay [3] (maximal percentage change in dp/dt over initial baseline (inotropic activity)) turned out to be 22%.

Broadly, the EC50 is the concentration at which the effect is half-maximal. The low end stands for higher potency in that assay, the high end for lower potency in that assay.
